13 compounds from patent publication US9428515B2, “Benzimidazole derivatives” (Boehringer Ingelheim International GmbH, priority 2014, dated 2016) can be followed below.

This assay addresses T1, BRD4-BD1 (Homo sapiens, UniProt O60885).
T1 construct: 15 nM GST-BRD4-BD1 protein (aa 44-168)
Nature of the assay: BRD4-H4 tetraacetylated peptide inhibition AlphaScreen. The class given is binding. The settings on record: 15 nM GST-BRD4-BD1 (aa 44-168), 15 nM biotinylated Acetyl-Histone H4 (Lys5, 8, 12, 16) peptide, 30 min at RT. The procedure: Biological Methods BRD4-H4 Tetraacetylated Peptide Inhibition AlphaScreen
Compounds are diluted in serial dilution 1:5 in assay buffer from 10 mM stock in DMSO (100 μM start concentration) in white OptiPlate-384 (PerkinElmer). A mix consisting of 15 nM GST-BRD4-BD1 protein (aa 44-168) or 150 nM GST-BRD4-BD2 (aa 333-460) and 15 nM biotinylated Acetyl-Histone H4 (Lys5, 8, 12, 16) peptide is prepared in assay buffer (50 mM HEPES pH=7.4; 25 mM NaCl; 0.05% Tween 20; 0.1% bovine serum albumin (BSA); 10 mM dithiothreitol (DTT)). 6 μl of the mix is added to the compound dilutions. Subsequently, 6 μl of premixed AlphaLISA Glutathione Acceptor Beads and AlphaScreen Streptavidin Donor Beads from PerkinElmer (in assay buffer at a concentration of 10 μg/ml each) are added and the samples are incubated for 30 min at RT in the dark (shaking 300 rpm). Afterwards, the signal is measured in a PerkinElmer Envision HTS Multilabel Reader using the AlphaScreen protocol from PerkinElmer.
Each plate contains negative controls where biotinylated Acetyl-Histone H4 peptide and GST-BRD4-BD1 or GST-BRD4-BD2 are left out and replaced by assay buffer. Negative control values are entered as low basis value when using the software GraphPad Prism for calculations. Furthermore, a positive control (probe molecule JQ1+ with protein/peptide mix) is pipetted. Determination of IC50 values are carried out using GraphPad Prism 3.03 software (or updates thereof).
The term IC50 denotes the concentration at which inhibition is half-maximal. Low values mean inhibition by little substance, high ones a need for much substance. Compound `COC[C@H](C)n1c(-c2cc(C)c(=O)n(C)c2)nc2cc3c(cc21)N(C)C(=O)C3(C)C` [I-1, 2-(1,5-Dimethyl-6-oxo-1,6-dihydro-pyridin-3-yl)-3-((S)-2-methoxy-1-methyl-ethyl)-5,7,7-trimethyl-5,7-dihydro-3H-imidazo[4,5-f]indol-6-one] yielded an IC50 of 50 nM. `Cc1cc(-c2nc3cc4c(cc3n2[C@@H](C)c2ccccc2)N(C(C)C)C(=O)C4(C)C)cn(C)c1=O` [I-2, 2-(1,5-Dimethyl-6-oxo-1,6-dihydro-pyridin-3-yl)-5-isopropyl-7,7-dimethyl-3-((S)-1-phenyl-ethyl)-5,7-dihydro-3H-imidazo[4,5-f]indol-6-one] had a half-inhibitory concentration (IC50) of 3 nM. For `Cc1cc(-c2nc3cc4c(cc3n2Cc2ccccn2)N(C)C(=O)C4(C)C)cn(C)c1=O` [I-3], the IC50 stood at 44 nM. Consider `COC[C@H](C)n1c(-c2cc(C)c(=O)n(C)c2)nc2cc3c(cc21)N(C(C)C)C(=O)C3(C)C` [I-4], for which half-maximal inhibition (IC50) required 22 nM. `Cc1nc(-c2nc3cc4c(cc3n2[C@@H](C)c2ccccc2)N(C(C)C)C(=O)C4(C)C)cn(C)c1=O` [I-5] had an IC50 of 9 nM. In turn, `Cc1nc(-c2nc3cc4c(cc3n2[C@@H](C)c2ccccc2)N(C)C(=O)C4(C)C)cn(C)c1=O` [I-6] registered an IC50 of 15 nM.

The compound `Cc1cc(-c2nc3cc4c(cc3n2[C@@H](C)c2ccccc2)N(C)C(=O)C4(C)C)cn(C)c1=O` [I-7] came in with an IC50 of 4 nM.

In the case of `CCN1C(=O)C(C)(C)c2cc3nc(-c4cc(C)c(=O)n(C)c4)n([C@@H](C)c4ccccc4)c3cc21` [I-8], the IC50 came out at 2 nM.

In turn, `Cc1cc(-c2nc3cc4c(cc3n2[C@@H](C)c2ccccc2)N(C(C)C)C(=O)C42CC2)cn(C)c1=O` [I-9] displayed an IC50 of 17 nM. Compared with the last compound, the IC50 is about 8.5-fold higher.

Turning to `Cc1cc(-c2nc3cc4c(cc3n2[C@@H](C)c2ccccc2)C(=O)N(C)C4(C)C)cn(C)c1=O` [II-1], the IC50 came to 13 nM.

`Cc1cc(-c2nc3cc4c(C)nn(C)c4cc3n2[C@@H](C)c2ccccc2)cn(C)c1=O` [III-1] came in with an IC50 of 5 nM. In turn, `CCn1nc(C)c2cc3nc(-c4cc(C)c(=O)n(C)c4)n([C@@H](C)c4ccccc4)c3cc21` [III-2] registered an IC50 of 8 nM. In turn, `CCc1nn(C)c2cc3c(cc12)nc(-c1cc(C)c(=O)n(C)c1)n3[C@@H](C)c1ccccc1` [III-3] gave an IC50 of 9 nM.
